Where two headings read alike, the source gives them in different places.
Columns and labels:
β-alanine aminopeptidase [1] = details: Pseudomonas stutzeri; 10 strains tested
β-alanine aminopeptidase [2] = system: β-alanine aminopeptidase
β-alanine aminopeptidase [3] = details: 137 strains tested
β-alanine aminopeptidase [4] = system: β-alanine aminopeptidase; remark: listed apart in the source
β-alanine aminopeptidase [5] = details: Oligella urethralis; 10 strains tested
β-alanine aminopeptidase [6] = type: cell-based; details: Shigella flexneri; 10 strains tested
β-alanine aminopeptidase [7] = details: Comamonas testoteroni; 10 strains tested
β-alanine aminopeptidase [8] = details: Chryseobacterium indologenes; 10 strains tested
β-alanine aminopeptidase [9] = details: Shigella dysenteriae; 10 strains tested
β-alanine aminopeptidase [10] = type: cell-based, Ochrobactrum anthropi
β-alanine aminopeptidase [11] = type: cell-based; details: Shigella boydii; 10 strains tested
β-alanine aminopeptidase [12] = system: β-alanine aminopeptidase; remark: listed apart in the source
β-alanine aminopeptidase [13] = experiment: Two-substrate semi-solid medium (Trypticase Soy agar), colony color; type: cell-based; details: agar also contains 6-Chloro-3-indolyl-β-D-glycopyranoside and 3,5-Dihydroxy-2-naphthoic acid, 35-37° C., 18-24 hours
Experimental: The medium was poured out and inoculated as follows: • 10 dishes with pure cultures corresponding to five strains of Pseudomonas aeruginosa and five of Pseudomonas mendocina, and • 2 dishes with a mixture of two strains, one being of Pseudomonas aeruginosa and the other of Pseudomonas mendocina. The Petri dishes were incubated at 35-37° C. After 18-24 hours of incubation, the color of the colonies was recorded.

β-alanine aminopeptidase [14] = experiment: Vitek 2 cards, broth with β-Alanyl p-nitroanilide; details: Pseudomonas stutzeri; 3 strains tested; read after 19 hours
β-alanine aminopeptidase [15] = experiment: Vitek 2 cards, broth with β-Alanyl p-nitroanilide; details: Citrobacter koseri; 1 strain tested; read after 19 hours
β-alanine aminopeptidase [16] = experiment: Vitek 2 cards, broth with β-Alanyl p-nitroanilide; details: Moraxella non liquefaciens; 2 strains tested; read after 19 hours
β-alanine aminopeptidase [17] = experiment: Vitek 2 cards, broth with β-Alanyl p-nitroanilide; details: Aeromonas hydrophila; 2 strains tested; read after 19 hours
β-alanine aminopeptidase [18] = experiment: Vitek 2 cards, broth with β-Alanyl p-nitroanilide; details: Proteus mirabilis; 2 strains tested; read after 19 hours
β-alanine aminopeptidase [19] = experiment: Vitek 2 cards, broth with β-Alanyl p-nitroanilide; details: Enterobacter cloacae; 2 strains tested; read after 19 hours
β-alanine aminopeptidase [20] = experiment: Vitek 2 cards, broth with β-Alanyl p-nitroanilide; details: Burkholderia vesicularis; 1 strain tested; read after 19 hours
β-alanine aminopeptidase [21] = experiment: Vitek 2 cards, broth with β-Alanyl p-nitroanilide; details: Chryseobacterium meningosepticum; 1 strain tested; read after 19 hours
β-alanine aminopeptidase [22] = experiment: Vitek 2 cards, broth with β-Alanyl p-nitroanilide; details: Shewanella algae; 1 strain tested; read after 19 hours
β-alanine aminopeptidase [23] = experiment: Vitek 2 cards, broth with β-Alanyl p-nitroanilide; details: Acinetobacter baumannii; 2 strains tested; read after 19 hours
β-alanine aminopeptidase [24] = experiment: Vitek 2 cards, broth with β-Alanyl p-nitroanilide; details: Salmonella arizonae; 1 strain tested; read after 19 hours
β-alanine aminopeptidase [25] = experiment: Vitek 2 cards, broth with β-Alanyl p-nitroanilide; details: Klebsiella pneumoniae; 2 strains tested; read after 19 hours
β-alanine aminopeptidase [26] = experiment: Vitek 2 cards, broth with β-Alanyl p-nitroanilide; details: Pseudomonas aeruginosa; 4 strains tested; read after 19 hours
β-alanine aminopeptidase [27] = experiment: Vitek 2 cards, broth with β-Alanyl p-nitroanilide; details: Stenotrophomonas maltophilia; 2 strains tested; read after 19 hours
β-alanine aminopeptidase [28] = experiment: Vitek 2 cards, broth with β-Alanyl p-nitroanilide; details: Enterobacter aerogenes; 2 strains tested; read after 19 hours
β-alanine aminopeptidase [29] = experiment: Vitek 2 cards, broth with β-Alanyl p-nitroanilide; details: Providencia stuartii; 1 strain tested; read after 19 hours
β-alanine aminopeptidase [30] = experiment: Vitek 2 cards, broth with β-Alanyl p-nitroanilide; details: Pseudomonas putida; 1 strain tested; read after 19 hours
β-alanine aminopeptidase [31] = experiment: Vitek 2 cards, broth with β-Alanyl p-nitroanilide; details: Vibrio vulnificus; 1 strain tested; read after 19 hours
β-alanine aminopeptidase [32] = experiment: Vitek 2 cards, broth with β-Alanyl p-nitroanilide; details: Brevundimonas diminuta; 1 strain tested; read after 19 hours
β-alanine aminopeptidase [33] = experiment: Vitek 2 cards, broth with β-Alanyl p-nitroanilide; details: Ralstonia pickettii; 1 strain tested; read after 19 hours
β-alanine aminopeptidase [34] = experiment: Vitek 2 cards, broth with β-Alanyl p-nitroanilide; details: Citrobacter freundii; 2 strains tested; read after 19 hours
β-alanine aminopeptidase [35] = experiment: Vitek 2 cards, broth with β-Alanyl p-nitroanilide; details: Serratia marcescens; 1 strain tested; read after 19 hours
β-alanine aminopeptidase [36] = experiment: Vitek 2 cards, broth with β-Alanyl p-nitroanilide; type: cell-based; details: Myroïdes spp.; 1 strain tested; read after 19 hours
β-alanine aminopeptidase [37] = experiment: Vitek 2 cards, broth with β-Alanyl p-nitroanilide; details: Klebsiella oxytoca; 2 strains tested; read after 19 hours
β-alanine aminopeptidase [38] = experiment: Vitek 2 cards, broth with β-Alanyl p-nitroanilide; details: Serratia liquefaciens; 1 strain tested; read after 19 hours
β-alanine aminopeptidase [39] = experiment: Vitek 2 cards, broth with β-Alanyl p-nitroanilide; details: Escherichia coli; 2 strains tested; read after 19 hours
β-alanine aminopeptidase [40] = experiment: Vitek 2 cards, broth with β-Alanyl p-nitroanilide; details: Enterobacter intermedius; 1 strain tested; read after 19 hours
β-alanine aminopeptidase [41] = experiment: Vitek 2 cards, broth with β-Alanyl p-nitroanilide; details: Sphingomonas paucimobilis; 2 strains tested; read after 19 hours
β-alanine aminopeptidase [42] = experiment: Vitek 2 cards, broth with β-Alanyl p-nitroanilide; details: Achromobacter xylosoxydans; 2 strains tested; read after 19 hours
β-alanine aminopeptidase [43] = experiment: Vitek 2 cards, broth with β-Alanyl p-nitroanilide; details: Citrobacter amalonaticus; 2 strains tested; read after 19 hours
β-alanine aminopeptidase [44] = experiment: Vitek 2 cards, broth with β-Alanyl p-nitroanilide; details: Proteus vulgaris; 1 strain tested; read after 19 hours
[45] = Ralstonia pickettii, 10 strains tested
[46] = Pseudomonas mendocina, 10 strains tested
[47] = Ochrobactrum anthropi, 11 strains tested
[48] = Chromobacterium violaceum, 11 strains tested

Cc1cc(=O)oc2cc(NC(=O)CCN)ccc12
Borderline results (β-alanine aminopeptidase [1]): 0 | Number of negative results (β-alanine aminopeptidase [1]): 10 | Number of positive results (β-alanine aminopeptidase [1]): 0 | percentage of positive results (β-alanine aminopeptidase [2]; Ralstonia pickettii strains): 20% | Borderline results (β-alanine aminopeptidase [2]; [45]): 0 | Number of negative results (β-alanine aminopeptidase [2]; [45]): 8 | Number of positive results (β-alanine aminopeptidase [2]; [45]): 2 | percentage of positive results (β-alanine aminopeptidase [3]; Pseudomonas aeruginosa strains): 97.8% | Borderline results (β-alanine aminopeptidase [3]; Pseudomonas aeruginosa): 1 | Number of negative results (β-alanine aminopeptidase [3]; Pseudomonas aeruginosa): 2 | Number of positive results (β-alanine aminopeptidase [3]; Pseudomonas aeruginosa): 134 | percentage of positive results (β-alanine aminopeptidase [4]; Pseudomonas mendocina strains): 100% | Borderline results (β-alanine aminopeptidase [4]; [46]): 0 | Number of negative results (β-alanine aminopeptidase [4]; [46]): 0 | Number of positive results (β-alanine aminopeptidase [4]; [46]): 10 | Borderline results (β-alanine aminopeptidase [5]): 0 | Number of negative results (β-alanine aminopeptidase [5]): 10 | Number of positive results (β-alanine aminopeptidase [5]): 0 | Borderline results (β-alanine aminopeptidase [6]): 0 | Number of negative results (β-alanine aminopeptidase [6]): 10 | Number of positive results (β-alanine aminopeptidase [6]): 0 | Borderline results (β-alanine aminopeptidase [7]): 0 | Number of negative results (β-alanine aminopeptidase [7]): 10 | Number of positive results (β-alanine aminopeptidase [7]): 0 | Borderline results (β-alanine aminopeptidase [8]): 0 | Number of negative results (β-alanine aminopeptidase [8]): 10 | Number of positive results (β-alanine aminopeptidase [8]): 0 | Borderline results (β-alanine aminopeptidase [9]): 0 | Number of negative results (β-alanine aminopeptidase [9]): 10 | Number of positive results (β-alanine aminopeptidase [9]): 0 | percentage of positive results (β-alanine aminopeptidase [10]; Ochrobactrum anthropi strains): 100% | Borderline results (β-alanine aminopeptidase [10]; [47]): 0 | Number of negative results (β-alanine aminopeptidase [10]; [47]): 0 | Number of positive results (β-alanine aminopeptidase [10]; [47]): 11 | Borderline results (β-alanine aminopeptidase [11]): 0 | Number of negative results (β-alanine aminopeptidase [11]): 10 | Number of positive results (β-alanine aminopeptidase [11]): 0 | percentage of positive results (β-alanine aminopeptidase [12]; Chromobacterium violaceum strains): 10% | Borderline results (β-alanine aminopeptidase [12]; [48]): 1 | Number of negative results (β-alanine aminopeptidase [12]; [48]): 9 | Number of positive results (β-alanine aminopeptidase [12]; [48]): 1

CNc1ccc(N(C)C(=O)CCN)cc1 [β-Alanyl-N,N′-dimethyl-p-phenylene-diamine]
color of the colonies (β-alanine aminopeptidase [13]; Pseudomonas aeruginosa): Blue colonies with a blue halo | color of the colonies (β-alanine aminopeptidase [13]; Pseudomonas mendocina): purple colonies with a blue halo

NCCC(=O)Nc1ccc([N+](=O)[O-])cc1 [β-Alanyl-p-nitroanilide, β-Alanine p-nitroanilide]
Number of negative results (β-alanine aminopeptidase [14]): 3 | Number positive results (β-alanine aminopeptidase [14]): 0 | Number of negative results (β-alanine aminopeptidase [15]): 1 | Number positive results (β-alanine aminopeptidase [15]): 0 | Number of negative results (β-alanine aminopeptidase [16]): 2 | Number positive results (β-alanine aminopeptidase [16]): 0 | Number of negative results (β-alanine aminopeptidase [17]): 2 | Number positive results (β-alanine aminopeptidase [17]): 0 | Number of negative results (β-alanine aminopeptidase [18]): 2 | Number positive results (β-alanine aminopeptidase [18]): 0 | Number of negative results (β-alanine aminopeptidase [19]): 2 | Number positive results (β-alanine aminopeptidase [19]): 0 | Number of negative results (β-alanine aminopeptidase [20]): 1 | Number positive results (β-alanine aminopeptidase [20]): 0 | Number of negative results (β-alanine aminopeptidase [21]): 1 | Number positive results (β-alanine aminopeptidase [21]): 0 | Number of negative results (β-alanine aminopeptidase [22]): 1 | Number positive results (β-alanine aminopeptidase [22]): 0 | Number of negative results (β-alanine aminopeptidase [23]): 2 | Number positive results (β-alanine aminopeptidase [23]): 0 | Number of negative results (β-alanine aminopeptidase [24]): 1 | Number positive results (β-alanine aminopeptidase [24]): 0 | Number of negative results (β-alanine aminopeptidase [25]): 2 | Number positive results (β-alanine aminopeptidase [25]): 0 | Number of negative results (β-alanine aminopeptidase [26]): 0 | Number positive results (β-alanine aminopeptidase [26]): 4 | Number of negative results (β-alanine aminopeptidase [27]): 2 | Number positive results (β-alanine aminopeptidase [27]): 0 | Number of negative results (β-alanine aminopeptidase [28]): 2 | Number positive results (β-alanine aminopeptidase [28]): 0 | Number of negative results (β-alanine aminopeptidase [29]): 1 | Number positive results (β-alanine aminopeptidase [29]): 0 | Number of negative results (β-alanine aminopeptidase [30]): 1 | Number positive results (β-alanine aminopeptidase [30]): 0 | Number of negative results (β-alanine aminopeptidase [31]): 1 | Number positive results (β-alanine aminopeptidase [31]): 0 | Number of negative results (β-alanine aminopeptidase [32]): 1 | Number positive results (β-alanine aminopeptidase [32]): 0 | Number of negative results (β-alanine aminopeptidase [33]): 1 | Number positive results (β-alanine aminopeptidase [33]): 0 | Number of negative results (β-alanine aminopeptidase [34]): 2 | Number positive results (β-alanine aminopeptidase [34]): 0 | Number of negative results (β-alanine aminopeptidase [35]): 0 | Number positive results (β-alanine aminopeptidase [35]): 1 | Number of negative results (β-alanine aminopeptidase [36]): 1 | Number positive results (β-alanine aminopeptidase [36]): 0 | Number of negative results (β-alanine aminopeptidase [37]): 2 | Number positive results (β-alanine aminopeptidase [37]): 0 | Number of negative results (β-alanine aminopeptidase [38]): 0 | Number positive results (β-alanine aminopeptidase [38]): 1 | Number of negative results (β-alanine aminopeptidase [39]): 2 | Number positive results (β-alanine aminopeptidase [39]): 0 | Number of negative results (β-alanine aminopeptidase [40]): 1 | Number positive results (β-alanine aminopeptidase [40]): 0 | Number of negative results (β-alanine aminopeptidase [41]): 2 | Number positive results (β-alanine aminopeptidase [41]): 0 | Number of negative results (β-alanine aminopeptidase [42]): 2 | Number positive results (β-alanine aminopeptidase [42]): 0 | Number of negative results (β-alanine aminopeptidase [43]): 2 | Number positive results (β-alanine aminopeptidase [43]): 0 | Number of negative results (β-alanine aminopeptidase [44]): 1 | Number positive results (β-alanine aminopeptidase [44]): 0
